Columns and labels:
heme-bound REV-ERBβ LBD = molecular target: T1, heme-bound REV-ERBβ LBD (Homo sapiens, UniProt Q14995); assay: ITC, NCoR ID peptides with heme-bound REV-ERBβ LBD; format: binding; conditions: for TΔS: pH 7.4, T constant at 25°C; for thermodynamic profile of peptide binding (in words), + heme: heme-bound LBD; for effect of heme on LBD affinity for peptide (in words): heme-bound vs apo LBD
T1 construct: The human REV-ERBβ LBD (residues 381 to 579) was previously cloned; 6xHis with 3C protease cleavage site (N, cleaved yes); made in house; host or cells: E. coli BL21(DE3)
T1 sequence (Q14995 381-579): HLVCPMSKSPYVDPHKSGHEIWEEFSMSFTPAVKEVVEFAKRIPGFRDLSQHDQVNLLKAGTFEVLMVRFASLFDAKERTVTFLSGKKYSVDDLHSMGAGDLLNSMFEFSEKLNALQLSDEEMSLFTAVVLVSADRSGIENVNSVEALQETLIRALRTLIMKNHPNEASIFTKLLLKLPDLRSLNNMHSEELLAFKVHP
Description: NCoR RID mutants were generated by site-directed mutagenesis: The ID1 CoRNR box motif was mutated from [sequence] to [sequence] (ΔID1 and ΔID1ΔID2), and the ID2 CoRNR box motif was mutated from LEDIIRKAL to TEDTTRKAL (ΔID2 and ΔID1ΔID2), as these mutations were previously reported to disrupt CoRNR box binding ([10], [30]). Heme (Sigma-Aldrich, no. 51280) was prepared either as a 1 mM stock in dimethyl sulfoxide (DMSO) stored at 4°C or 50 mM stock in 0.2 M NaOH (solutions prepared in 0.2 M NaOH were always made fresh immediately before the experiment), where indicated. […] Human embryonic kidney (HEK) 293T cells (American Type Culture Collection, no. CRL-11268) were cultured in Dulbecco’s modified eagle medium (DMEM) supplemented with 10% fetal bovine serum, 2 mM L-glutamine, and 1% penicillin-streptomycin at 37°C and 5% CO2 under standard culture conditions. The pcDNA3.1^+ expression vector containing full-length human REV-ERBβ ([31]) and the pGL3-Bmal1-luciferase construct containing the Bmal1 promoter (−816 to +99 of the mouse Bmal1 promoter region) were used in HEK293T cell transfections. Site-directed mutagenesis was performed to mutate the proximal RORE (pRORE mutant), distal RORE (dRORE mutant), or both (p/dRORE mutant) in the pGL3-Bmal1-luciferase construct based on a previous study ([6]) where the ROREs were mutated to disrupt REV-ERBα activity.
Expression was performed using auto-induction media: Cells were grown at 37°C for 5 hours, 30°C for 1 hour, and 18°C for 16 hours before harvesting by centrifugation. Pellets were resuspended in potassium phosphate lysis buffer [40 mM potassium phosphate (pH 7.4), 500 mM KCl, 15 mM imidazole, and 1 mM dithiothreitol (DTT)] supplemented with leupeptin, pepstatin A, lysozyme, and deoxyribonuclease (DNase) I and sonicated on ice. […] A 5-ml aliquot of 6xHis-tagged protein was purified by size exclusion chromatography using a Superdex 75 column equilibrated in time-resolved fluorescence energy transfer (TR-FRET) assay buffer [20 mM potassium phosphate (pH 7.4), 50 mM KCl, and 0.5 mM EDTA]; purified aliquots were stored at −80°C for TR-FRET assays. To cleave the 6xHis tag from the remaining protein, it was incubated overnight with 3C protease (generated in-house) via dialysis; then, protein was reloaded onto the HisTrap columns, and the flow-through was collected. Last, aggregates were removed by size exclusion chromatography using a Superdex 75 column and Hepes gel filtration buffer [20 mM Hepes (pH 7.4), 50 mM KCl, and 0.5 mM EDTA]. Greater than 95% purity was confirmed by SDS-PAGE. Protein was aliquoted and stored at −80°C.
ITC experiments were performed using a MicroCal iTC200. All experiments were solvent-matched and contained 0.1% DMSO (peptide vehicle) and 0.2% 0.2 M solution of NaOH (heme vehicle) final concentrations.
LBD in the syringe was titrated into ID peptide in the sample cell at 25°C with a 60-s delay between injections (2-μl intervals) with a mixing speed of 1200 rpm for a total of 20 injections (or 2 molar equivalents of LBD), unless otherwise noted below.

[1] = system: apo 15N-labeled REV-ERBβ LBD; assay: NMR structural footprinting, 2D [1H,15N]-TROSY-HSQC titration, apo LBD; format: binding, human; conditions: apo LBD (200 μM), 298 K, 20 mM Hepes pH 7.4, 50 mM NaCl, 0.5 mM EDTA
From the text: To support our ITC results, we performed solution NMR structural footprinting by titrating NCoR ID1 or ID2 peptide into ^15N-labeled REV-ERBβ LBD. For this analysis, we used backbone NMR chemical shift assignments that we previously reported for apo LBD ([18]) and collected three-dimensional (3D) NMR data to obtain backbone NMR chemical shift assignments for heme-bound LBD (fig. S4). […] To qualitatively assess the strength of each interaction, we analyzed the exchange regime of NMR chemical shift changes on the NMR time scale. […]
(§1) To generate heme-bound protein, 1.25 molar equivalents of heme prepared in 0.2 M NaOH as a 50 mM stock were added to ^15N-labeled REV-ERBβ LBD (200 μM) or ^2H-,^15N-,^13C-labeled REV-ERBβ LBD (1 mM) in Hepes buffer [20 mM Hepes (pH 7.4), 50 mM NaCl, and 0.5 mM EDTA]. NMR data were collected at 298 K on a Bruker 700-MHz NMR system equipped with a QCI CryoProbe, processed using NMRFx ([40]), and analyzed using NMRViewJ ([41]). […] 2D [^1H,^15N]-TROSY-HSQC data were collected for heme-bound ^15N-labeled REV-ERBβ LBD at 298 K with addition of NCoR ID1 or ID2 peptides prepared as 50 mM stock in DMSO and analyzed in NMRViewJ. […]

[2] = system: heme-bound 15N-labeled REV-ERBβ LBD; assay: NMR structural footprinting, 2D [1H,15N]-TROSY-HSQC titration, heme-bound LBD; format: binding, human; conditions: 298 K; for NMR exchange regime on peptide titration: heme-bound LBD (200 μM, 1.25 equivalents heme), 20 mM Hepes pH 7.4, 50 mM NaCl, 0.5 mM EDTA; for NMR CSP and line broadening, binding surface: heme-bound LBD, 2× ID1 or ID2 peptide
From the text: To support our ITC results, we performed solution NMR structural footprinting by titrating NCoR ID1 or ID2 peptide into ^15N-labeled REV-ERBβ LBD. For this analysis, we used backbone NMR chemical shift assignments that we previously reported for apo LBD ([18]) and collected three-dimensional (3D) NMR data to obtain backbone NMR chemical shift assignments for heme-bound LBD (fig. S4). […] To qualitatively assess the strength of each interaction, we analyzed the exchange regime of NMR chemical shift changes on the NMR time scale.
Next, we used differential NMR analysis to structurally map the ID1 and ID2 peptide binding surfaces in the heme-bound LBD. In other NRs, the AF-2 coregulator interaction surface is formed by the physical interaction of helix 12 with a surface formed by helices 3 to 5 within the LBD. REV-ERBβ lacks helix 12 but contains the surface formed by helices 3 to 5 including a conserved lysine residue (K421) on helix 3 important for corepressor interaction ([19]). We quantitatively analyzed chemical shift perturbations (CSPs) and line broadening caused by peptide binding in 2D [^1H,^15N]-TROSY-HSQC NMR spectra (Fig. 1D and fig. S6). […] We also observed binding effects on helix 7, which may be attributed to a peptide-induced allosteric conformational change due to interactions between the heme propionate group and G480 on helix 7 (fig. S7).
For generation of ^15N-labeled REV-ERBβ LBD, protein was expressed in BL21(DE3) E. coli cells using M9 minimal media supplemented with ^15NH4Cl (Cambridge Isotope Laboratories) induced at an optical density at 600 nm (OD600) of 0.6 with 0.5 mM isopropyl-β-D-thiogalactopyranoside (IPTG) for 16 hours at 18°C. For generation of ^2H-,^15N-,^13C-labeled REV-ERBβ LBD (~70% deuteration) for peak assignment experiments, cultures were first grown at 37°C in 1 liter of LB media until an OD600 of 0.6 before the cells were pelleted and resuspended in 0.5 liters of M9 minimal media prepared in D2O supplemented with ^13C-D-glucose and ^15NH4Cl (Cambridge Isotope Laboratories). After 1-hour recovery at 37°C, expression was induced with 0.5 mM IPTG for 16 hour at 37°C before harvesting by centrifugation. […]
as §1

[3] = +Heme LBD, pH 7.4, 25°C, 95% CI

ΔH, enthalpy of binding (heme-bound REV-ERBβ LBD; [3])	TΔS (heme-bound REV-ERBβ LBD; +Heme LBD, 95% CI)	thermodynamic profile of peptide binding (in words), + heme (heme-bound REV-ERBβ LBD)	effect of heme on LBD affinity for peptide (in words) (heme-bound REV-ERBβ LBD)	ΔG, free energy of binding (heme-bound REV-ERBβ LBD; [3])	Compound	NMR exchange regime on peptide titration [1]	NMR exchange regime on peptide titration [2]	NMR CSP and line broadening, binding surface [2]
3.0 kcal/mol	10.7 kcal/mol	entropically driven and endothermic	increased LBD affinity	–	CC[C@H](C)[C@H](NC(=O)[C@H](CC(=O)O)NC(=O)[C@H](CCC(=O)O)NC(=O)[C@H](CC(C)C)NC(=O)CNC(=O)[C@H](CC(C)C)NC(=O)[C@H](CC(N)=O)NC(=O)[C@H](CO)NC(=O)[C@H](C)NC(=O)[C@@H]1CCCN1C(=O)[C@H](CC(=O)O)NC(C)=O)C(=O)N[C@H](C(=O)N[C@@H](CCCNC(=N)N)C(=O)N[C@@H](CCCCN)C(=O)N[C@@H](C)C(=O)N[C@@H](CC(C)C)C(=O)N[C@@H](CCSC)C(=O)NCC(=O)N[C@@H](CO)C(=O)N[C@@H](Cc1ccccc1)C(=O)N[C@@H](CC(=O)O)C(=O)N[C@@H](CC(=O)O)C(=O)N[C@@H](CCCCN)C(N)=O)[C@@H](C)CC [NCoR ID2 peptide]	fast	mixture of peak movements in slow and intermediate exchange	AF-2 surface residues including K421 showed the largest CSP changes and line broadening
1.7 kcal/mol	9.3 kcal/mol	entropically driven and endothermic	decreased LBD affinity	-7.7 kcal/mol	Ac-RTHRLITLADHICQIITQDFARN-NH2 [NCoR ID1 peptide]	slow	mixture of peak movements in slow and intermediate exchange	AF-2 surface residues including K421 showed the largest CSP changes and line broadening
